Results published in patent publication EP2057185B1, “POLYMYXIN DERIVATIVES AND USES THEREOF” (Northern Antibiotics Oy, priority 2006, dated 2008).
Bridge positions count the residues as written; N and C are the ends. Square brackets hold non-standard residues; d marks the D form. Peptide text beside a SMILES is read from it. * marks the point of attachment. Octanoyl = CCCCCCCC(=O)*; Dab = NCC[C@H](N)C(=O)O; Abu = CC[C@H](N)C(=O)O

Experiments:
[1] = system: K. pneumoniae CCUG45421; assay: Growth inhibition around wells on LB agar plates; assay type: cell-based, Klebsiella pneumoniae; conditions: growth inhibition area around well
Experimental: (§1) From an overnight-grown culture of IH3080 on LB agar, a suspension of approx. 10^8 cells/ml was prepared in 0.9% NaCl. Aliquots of this suspension were then pipetted on the agar plates and the plates were gently shaken to spread the suspension evenly on the entire surface of the plate. Thereafter, the unabsorbed part of the suspension was removed by using a Pasteur pipette. After the surface had dried, small wells (diameter, 2 mm) were drilled on the plates (five wells per plate) by using a sterile sharp-edged narrow metal tube, single-use pipette tip, and vacuum suction. Samples (4 µl and 10 µl) of the peptide solution in 0.9% NaCl (at concentrations of 1 µg/ml and 0.1 µg/ml) were then pipetted to the wells and the sample fluids were allowed to absorb. Controls included 0.9% NaCl solution without the compound to be tested. The plates were then incubated for 18 h at 37°C whereafter the diameters of growth inhibition zones around each well were measured; the diameter of the well itself was […]. Finally, the diameters were converted to surface areas of growth inhibition (in square mm).
(§2) The susceptibility of eleven Gram-negative bacterial strains (nine different species) to NAB734 and polymyxin B was compared by using the susceptibility determination method described in Example 2. The strains included those belonging to the species of Serratia marcescens and Proteus mirabilis, both species generally known to be resistant to polymyxin. Furthermore, the susceptibility determination was also performed by using the Gram-positive bacterium, Staphylococcus aureus, also generally known to be polymyxin-resistant. Ten of the strains originated from ATCC (American Type Culture Collection, Manassas, VA, U.S.A.), and one from CCUG (Culture Collection of University of Gothenburg, Sweden). The source of E. coli IH3080 has been described in Example 2. Polymyxin B sulfate was from Sigma-Aldrich (St. Louis, MO, USA).

[2] = system: K. pneumoniae ATCC13883; assay: Growth inhibition around wells on LB agar plates; assay type: cell-based, Klebsiella pneumoniae; conditions: growth inhibition area around well
Experimental: as §1, §2

[3] = system: E. cloacae ATCC23355; assay: Growth inhibition around wells on LB agar plates; assay type: cell-based, Enterobacter cloacae; conditions: growth inhibition area around well
Experimental: as §1
(§3) The susceptibility of eleven Gram-negative bacterial strains (nine different species) to NAB734 and polymyxin B was compared by using the susceptibility determination method described in Example 2. […]

[4] = system: S. aureus ATCC 25923; assay: Growth inhibition around wells on LB agar plates; assay type: cell-based, Staphylococcus aureus; conditions: growth inhibition area around well
Experimental: as §1, §3

[5] = system: P. vulgaris ATCC13315; assay: MIC by E-strips on Mueller-Hinton agar with or without NAB7061 (4 µg/ml); assay type: cell-based
Experimental: (§4) MICs were determined by using E-strips (Biodisk Ltd., Solna, Sweden) according to the manufacturer's instructions.
(§5) The strains originated from ATCC (11 strains), CCUG (11 strains), and NCTC (The National Collection of Type Cultures, Colindale, U.K.; 2 strains). Eight strains (the F-strains) were purchased from Mobidiag Ltd., Helsinki, Finland.

[6] = system: S. maltophilia ATCC17444; assay: as above; assay type: cell-based
Experimental: as §4, §5

[7] = system: carbapenem-resistant strains (F263, F264); assay: E-strip MIC of carbapenems, summary over resistant strains; assay type: cell-based, Acinetobacter baumannii; conditions: NAB7061 4 µg/ml
Experimental: as §4

Polymyxin B
Antibacterial activity 4 µg ([1]; 4 µg): 95 square millimeters
Antibacterial activity 10 µg ([1]; 10 µg): 133 square millimeters
Antibacterial activity 4 µg ([2]; 4 µg): 79 square millimeters
Antibacterial activity 10 µg ([2]; 10 µg): 113 square millimeters
Antibacterial activity 4 µg ([3]; 4 µg): 95 square millimeters
Antibacterial activity 10 µg ([3]; 10 µg): 143 square millimeters
Antibacterial activity 4 µg ([4]; 4 µg): 0 square millimeters
Antibacterial activity 10 µg ([4]; 10 µg): 0 square millimeters

CCCCCCCC(=O)N[C@H](C(=O)N[C@@H](CC)C(=O)N[C@H]1CCNC(=O)[C@H]([C@@H](C)O)NC(=O)[C@H](CCN)NC(=O)[C@H](CCN)NC(=O)[C@H](CC(C)C)NC(=O)[C@@H](Cc2ccccc2)NC(=O)[C@H](CCN)NC1=O)[C@@H](C)O [NAB 7061, OA-Thr-Abu-cy[Dab-Dab-DPhe-Leu-Dab-Dab-Thr-]] (Octanoyl-T[Abu][Dab][Dab][dF]L[Dab][Dab]T; lactam 3-C)
MIC (µg/ml) of rifampin in the presence of 4 µg/ml of NAB 7061 [5]: 1-1,5 µg/ml
Sensitization factor to clarithromycin ([5]; 4 µg/ml of NAB 7061): <2
Sensitization factor to rifampin ([5]; 4 µg/ml of NAB 7061): <2
sensitization factor to both carbapenems (imipenem, meropenem) [7]: ≥ 4
